# Test results published in patent US11254663B2 (BRISTOL-MYERS SQUIBB COMPANY, priority 2019, dated 2022).
# pEC50: −log10 of the molar value.
# Biological target: FXR (Homo sapiens (Human), UniProt Q96RI1)
# Experiment: FXR EC50 (FXR agonist potency reported with each Example)
# Type: cell-based
# Sequence of FXR (Q96RI1 262-486): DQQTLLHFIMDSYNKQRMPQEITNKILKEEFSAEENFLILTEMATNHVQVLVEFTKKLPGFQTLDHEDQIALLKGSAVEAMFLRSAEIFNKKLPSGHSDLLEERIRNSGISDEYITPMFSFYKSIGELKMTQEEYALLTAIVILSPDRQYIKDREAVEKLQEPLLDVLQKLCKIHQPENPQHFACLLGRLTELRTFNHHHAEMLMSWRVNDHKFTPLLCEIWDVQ
row,pEC50,SMILES
1,7.06,"CC(C)(O)c1coc(-c2cccc(N(CC34CCC(c5nc(C6CC6)no5)(CC3)CC4)C(=O)C34CC(F)(C3)C4)c2)n1 [Example 15, N-((4-(3-cyclopropyl-1,2,4-oxadiazol-5-yl)bicyclo[2.2.2]octan-1-yl)methyl)-3-fluoro-N-(3-(4-(2-hydroxypropan-2-yl)oxazol-2-yl)phenyl)bicyclo[1.1.1]pentane-1-carboxamide]"
2,6.86,"O=C(C1CCC1)N(CC12CCC(c3nc(C4CC4)no3)(CC1)CC2)c1cccc(-c2cnc(C3CC3)o2)c1 [Example 20, N-((4-(3-cyclopropyl-1,2,4-oxadiazol-5-yl)bicyclo[2.2.2]octan-1-yl)methyl)-N-(3-(2-cyclopropyloxazol-5-yl)phenyl)cyclobutanecarboxamide]"
3,7.06,"CCOc1cc(-c2cccc(N(CC34CCC(c5nc(C6CC6)no5)(CC3)CC4)C(=O)C34CC(F)(C3)C4)c2)no1 [Example 25, N-((4-(3-cyclopropyl-1,2,4-oxadiazol-5-yl)bicyclo[2.2.2]octan-1-yl)methyl)-N-(3-(5-ethoxyisoxazol-3-yl)phenyl)-3-fluorobicyclo[1.1.1]pentane-1-carboxamide]"
4,7.14,"CCCc1ncc(-c2cccc(N(CC34CCC(c5nc(C6CC6)no5)(CC3)CC4)C(=O)C34CC(F)(C3)C4)c2)o1 [Example 26, N-((4-(3-cyclopropyl-1,2,4-oxadiazol-5-yl)bicyclo[2.2.2]octan-1-yl)methyl)-3-fluoro-N-(3-(2-propyloxazol-5-yl)phenyl)bicyclo[1.1.1]pentane-1-carboxamide]"
5,5.96,"CCOC(=O)c1nc(-c2cccc(N(CC34CCC(c5nc(C6CC6)no5)(CC3)CC4)C(=O)C34CC(F)(C3)C4)c2)cs1 [Example 29, Ethyl 4-(3-(N-((4-(3-cyclopropyl-1,2,4-oxadiazol-5-yl)bicyclo[2.2.2]octan-1-yl)methyl)-3-fluorobicyclo[1.1.1]pentane-1-carboxamido)phenyl)thiazole-2-carboxylate]"
6,6.95,"O=C(N(CC12CCC(c3nc(C4CC4)no3)(CC1)CC2)c1cccc(-c2csc(CCl)n2)c1)C12CC(F)(C1)C2 [Example 30, N-(3-(2-(chloromethyl)thiazol-4-yl)phenyl)-N-((4-(3-cyclopropyl-1,2,4-oxadiazol-5-yl)bicyclo[2.2.2]octan-1-yl)methyl)-3-fluorobicyclo[1.1.1]pentane-1-carboxamide]"
7,6.59,"CC(C)(O)c1nc(-c2cccc(N(CC34CCC(c5nc(C6CC6)no5)(CC3)CC4)C(=O)C34CC(F)(C3)C4)c2)cs1 [Example 31, N-((4-(3-cyclopropyl-1,2,4-oxadiazol-5-yl)bicyclo[2.2.2]octan-1-yl)methyl)-3-fluoro-N-(3-(2-(2-hydroxypropan-2-yl)thiazol-4-yl)phenyl)bicyclo[1.1.1]pentane-1-carboxamide]"
8,6.12,"Cc1cc(C23CCC(CN(C(=O)C45CC(F)(C4)C5)c4cccc(-c5nc(C6CC6)no5)c4)(CC2)CC3)ccn1 [Example 32, N-(3-(3-cyclopropyl-1,2,4-oxadiazol-5-yl)phenyl)-3-fluoro-N-((4-(2-methylpyridin-4-yl)bicyclo[2.2.2]octan-1-yl)methyl)bicyclo[1.1.1]pentane-1-carboxamide]"
9,5.82,"Cc1noc(C23CCC(CN(C(=O)C45CC(F)(C4)C5)c4cccc(-c5cnc(C6CCOCC6)o5)c4)(CC2)CC3)n1 [Example 34, 3-Fluoro-N-((4-(3-methyl-1,2,4-oxadiazol-5-yl)bicyclo[2.2.2]octan-1-yl)methyl)-N-(3-(2-(tetrahydro-2H-pyran-4-yl)oxazol-5-yl)phenyl)bicyclo[1.1.1]pentane-1-carboxamide]"
10,6.60,"O=C(N(CC12CCC(c3nc(C4CC4)no3)(CC1)CC2)c1cccc(-c2cnc(C3CCOCC3)o2)c1)C12CC(F)(C1)C2 [Example 35, N-((4-(3-cyclopropyl-1,2,4-oxadiazol-5-yl)bicyclo[2.2.2]octan-1-yl)methyl)-3-fluoro-N-(3-(2-(tetrahydro-2H-pyran-4-yl)oxazol-5-yl)phenyl)bicyclo[1.1.1]pentane-1-carboxamide]"
11,6.30,"O=C(C1CC(F)(F)C1)N(CC12CCC(c3nc(C4CC4)no3)(CC1)CC2)c1cccc(-c2cnc(C3CCOCC3)o2)c1 [Example 36, N-((4-(3-cyclopropyl-1,2,4-oxadiazol-5-yl)bicyclo[2.2.2]octan-1-yl)methyl)-3,3-difluoro-N-(3-(2-(tetrahydro-2H-pyran-4-yl)oxazol-5-yl)phenyl)cyclobutane-1-carboxamide]"
12,7.09,"Cc1cnc(C23CCC(CN(C(=O)C45CC(F)(C4)C5)c4cccc(-c5nc(C6CC6)no5)c4)(CC2)CC3)o1 [Example 37, N-(3-(3-cyclopropyl-1,2,4-oxadiazol-5-yl)phenyl)-3-fluoro-N-((4-(5-methyloxazol-2-yl)bicyclo[2.2.2]octan-1-yl)methyl)bicyclo[1.1.1]pentane-1-carboxamide]"
13,6.51,"Cc1cnc(C23CCC(CN(C(=O)C4CCC(F)(F)C4)c4cccc(-c5nc(C6CC6)no5)c4)(CC2)CC3)o1 (stereo not shown) [Example 39, N-(3-(3-cyclopropyl-1,2,4-oxadiazol-5-yl)phenyl)-3,3-difluoro-N-((4-(5-methyloxazol-2-yl)bicyclo[2.2.2]octan-1-yl)methyl)cyclopentane-1-carboxamide]"
14,6.61,"O=C(N(CC12CCC(c3nc(C4CC4)no3)(CC1)CC2)c1cccc(-c2nc(C(F)F)co2)c1)C12CC(F)(C1)C2 [Example 40, N-((4-(3-cyclopropyl-1,2,4-oxadiazol-5-yl)bicyclo[2.2.2]octan-1-yl)methyl)-N-(3-(4-(difluoromethyl)oxazol-2-yl)phenyl)-3-fluorobicyclo[1.1.1]pentane-1-carboxamide]"

# The next lines start with the molecule.
row,SMILES,pEC50
1,"CC(C)(O)c1coc(-c2cccc(N(CC34CCC(c5nc(C6CC6)no5)(CC3)CC4)C(=O)C3CC(F)(F)C3)c2)n1 [Example 16, N-((4-(3-cyclopropyl-1,2,4-oxadiazol-5-yl)bicyclo[2.2.2]octan-1-yl)methyl)-3,3-difluoro-N-(3-(4-(2-hydroxypropan-2-yl)oxazol-2-yl)phenyl)cyclobutane-1-carboxamide]",6.50
2,"CC(C)(O)c1coc(-c2cccc(N(CC34CCC(c5nc(C6CC6)no5)(CC3)CC4)C(=O)C3CC(C(F)F)C3)c2)n1 (stereo not shown) [Example 17, N-((4-(3-cyclopropyl-1,2,4-oxadiazol-5-yl)bicyclo[2.2.2]octan-1-yl)methyl)-3-(difluoromethyl)-N-(3-(4-(2-hydroxypropan-2-yl)oxazol-2-yl)phenyl)cyclobutane-1-carboxamide]",6.51
3,"CC(C)(O)c1coc(-c2cccc(N(CC34CCC(c5nc(C6CC6)no5)(CC3)CC4)C(=O)C3CCC(F)(F)C3)c2)n1 (stereo not shown) [Example 18, N-((4-(3-cyclopropyl-1,2,4-oxadiazol-5-yl)bicyclo[2.2.2]octan-1-yl)methyl)-3,3-difluoro-N-(3-(4-(2-hydroxypropan-2-yl)oxazol-2-yl)phenyl)cyclopentane-1-carboxamide]",6.81
4,"O=C(C1CC(O)(C(F)(F)F)C1)N(CC12CCC(c3nc(C4CC4)no3)(CC1)CC2)c1cccc(-c2cnc(C3CC3)o2)c1 [Example 21, (1S,3S)—N-((4-(3-cyclopropyl-1,2,4-oxadiazol-5-yl)bicyclo[2.2.2]octan-1-yl)methyl)-N-(3-(2-cyclopropyloxazol-5-yl)phenyl)-3-hydroxy-3-(trifluoromethyl)cyclobutane-1-carboxamide]",7.10
5,"O=C(C1CC(F)(F)C1)N(CC12CCC(c3nc(C4CC4)no3)(CC1)CC2)c1cccc(-c2cnc(C3CC3)o2)c1 [Example 22, N-((4-(3-cyclopropyl-1,2,4-oxadiazol-5-yl)bicyclo[2.2.2]octan-1-yl)methyl)-N-(3-(2-cyclopropyloxazol-5-yl)phenyl)-3,3-difluorocyclobutane-1-carboxamide]",6.88
6,"O=C(N(CC12CCC(c3nc(C4CC4)no3)(CC1)CC2)c1cccc(-c2cnc(C3CC3)o2)c1)C12CC(F)(C1)C2 [Example 23, N-((4-(3-cyclopropyl-1,2,4-oxadiazol-5-yl)bicyclo[2.2.2]octan-1-yl)methyl)-N-(3-(2-cyclopropyloxazol-5-yl)phenyl)-3-fluorobicyclo[1.1.1]pentane-1-carboxamide]",7.14
7,"O=C(C1CC(C(F)F)C1)N(CC12CCC(c3nc(C4CC4)no3)(CC1)CC2)c1cccc(-c2cnc(C3CC3)o2)c1 (stereo not shown) [Example 24, N-((4-(3-cyclopropyl-1,2,4-oxadiazol-5-yl)bicyclo[2.2.2]octan-1-yl)methyl)-N-(3-(2-cyclopropyloxazol-5-yl)phenyl)-3-(difluoromethyl)cyclobutane-1-carboxamide]",6.55
8,"CCCc1ncc(-c2cccc(N(CC34CCC(c5nc(C6CC6)no5)(CC3)CC4)C(=O)C3CC(F)(F)C3)c2)o1 [Example 27, N-((4-(3-cyclopropyl-1,2,4-oxadiazol-5-yl)bicyclo[2.2.2]octan-1-yl)methyl)-3,3-difluoro-N-(3-(2-propyloxazol-5-yl)phenyl)cyclobutane-1-carboxamide]",6.83
9,"CCCc1ncc(-c2cccc(N(CC34CCC(c5nc(C6CC6)no5)(CC3)CC4)C(=O)C3CC(C(F)F)C3)c2)o1 (stereo not shown) [Example 28, N-((4-(3-cyclopropyl-1,2,4-oxadiazol-5-yl)bicyclo[2.2.2]octan-1-yl)methyl)-3-(difluoromethyl)-N-(3-(2-propyloxazol-5-yl)phenyl)cyclobutane-1-carboxamide]",6.61
10,"Cc1cc(C23CCC(CN(C(=O)C4CCC(F)(F)C4)c4cccc(-c5nc(C6CC6)no5)c4)(CC2)CC3)ccn1 (stereo not shown) [Example 33, N-(3-(3-cyclopropyl-1,2,4-oxadiazol-5-yl)phenyl)-3,3-difluoro-N-((4-(2-methylpyridin-4-yl)bicyclo[2.2.2]octan-1-yl)methyl)cyclopentane-1-carboxamide]",5.37
11,"O=C(C1CC(F)(F)C1)N(CC12CCC(c3nc(C4CC4)no3)(CC1)CC2)c1cccc(-c2nc(C(F)F)co2)c1 [Example 41, N-((4-(3-cyclopropyl-1,2,4-oxadiazol-5-yl)bicyclo[2.2.2]octan-1-yl)methyl)-N-(3-(4-(difluoromethyl)oxazol-2-yl)phenyl)-3,3-difluorocyclobutane-1-carboxamide]",6.33
